Test results published in a melting point compilation (Tetko et al.; mined from patent text by program, amines drawn as free bases though some values may be those of a salt).

SMILES | melting point [°C]
OCC1Cc2cccc(F)c2OC1CO (stereo not drawn) | 111
CCCCCCN(Cc1ccc2ccccc2c1)c1c(N[C@@H](Cc2ccccc2)C(=O)O)c(=O)c1=O | 62 to 70
CCOC(=O)C1=C(C)Nc2ccnn2C1c1ccccc1C(F)(F)F (stereo not drawn) | 182 to 183
Cc1ccccc1C(=O)Nc1ccc(Cl)c(C(=O)OC(C)C)c1 | 137 to 138
CCc1ncnc(NC(CC)c2ccc(Oc3ncccn3)cc2)c1Cl (stereo not drawn) | 100 to 112
Brc1ccc(/C=N/c2ccccc2)c(OCc2ccccc2)c1 | 100
O=C(Cl)N1CC(Oc2ccc(Br)cc2)C1 | 77 to 78
O=C(O)C(CSc1nccs1)CS(=O)(=O)c1ccc(-c2ccc(Cl)cc2)cc1 (stereo not drawn) | 152 to 154
O=C(OCc1ccccc1)c1cc(I)ccc1OCc1ccccc1 | 72 to 73
CC(C)(C)OC(=O)N1CCC(c2nc3cc(-c4ccc(-n5cnnn5)c(F)c4)ccc3o2)CC1 | 154 to 159
CN(SC(Cl)(Cl)Cl)C(=O)OC(C(Oc1ccc(Cl)cc1)n1cncn1)C(C)(C)C (stereo not drawn) | 110 to 112
O=C(O)c1ccc2c(c1)S(=O)(=O)c1ccc(Cl)cc1C=C2 | 276 to 278
Cc1noc(NS(=O)(=O)c2cc(Cl)sc2Cl)c1Br | 135 to 138
CC(C)N1C(=O)c2cccnc2NS1(=O)=O | 190
Cc1cc(-c2ccc(C(F)(F)F)nc2)cc(-c2cccc(-c3cccc(S(N)(=O)=O)c3)c2)n1 | 227 to 232
CC(C)(C)COC(=O)COc1ccc(C(=O)CN2CCN(c3ccncc3)CC2)cc1 | 88 to 90
CCc1c(Sc2cc(C)cc(C)c2)[nH]c(=O)[nH]c1=O | 224 to 225
COC(=O)CSc1c(C)cc(C(O)(C(F)(F)F)C(F)(F)F)cc1C | 99 to 101
O=c1n(CO)c2ccccc2n1CO | 157 to 161
O=C(c1ccccc1)N1CC(O)C(O)C(O)C1CO (stereo not drawn) | 159
CCCCc1nn(-c2ccc(C(F)(F)F)cn2)cc1CCCOc1nn(CC)cc1CC(=O)O | 109 to 110
O=C(Nc1nccs1)c1nc(-c2ccc(C(F)(F)F)cc2)[nH]c1-c1ccc(F)cc1 | > 250
COC(=O)C1=C(C)NN=C(C(=O)N(C)Cc2ccccc2)C1c1ccccc1C(F)(F)F (stereo not drawn) | 197
C/C(C=O)=C\COc1cccc(O)c1 | 136 to 138
Cc1cc(Cn2cc(C(F)(F)C(F)(F)F)c(C(F)(F)C(F)(F)F)n2)ccc1NC(=O)c1cccc(Br)c1C(=O)N[C@@H](C)CS(C)(=O)=O | 134 to 136
OC(c1ccc(OCc2ccccc2)cc1)C(F)(F)F (stereo not drawn) | 115 to 117

SMILES | melting point [°C]
O=C(Nc1c([N+](=O)[O-])cnn1-c1c(Cl)cc(C(F)(F)F)c(Cl)c1Cl)C(F)F | 146 to 151
CCOc1cc(C(CC#N)N2C(=O)c3ccc4ccccc4c3C2=O)ccc1OC (stereo not drawn) | 163 to 165
CCOC(=O)c1sc(Oc2ccc(NS(=O)(=O)c3ccc(C)cc3)cc2)c2c1CCc1cnn(C)c1-2 | 201 to 202
Cc1c(OCC(F)(F)F)ccnc1CSc1nc2cc(OC(F)F)ccc2n1N | 179 to 180
CC(Oc1cccc(Oc2ccc(C(F)(F)F)cc2)c1)C(=O)OCCS(=O)Cc1ccccc1 (stereo not drawn) | 110 to 112
CN(C)S(=O)(=O)c1cc2c(c(C(=O)O)c1)OCCO2 | 220 to 221
Cc1nn(-c2cncc(F)c2)cc1I | 87 to 88
C/C(=C\C=C(c1ccccc1)c1ccccc1)C(=O)O | 184 to 186
COC(=O)c1ccc(NC(=O)C(N)c2ccc3c(c2)C(C)(C)CCC3(C)C)n1C (stereo not drawn) | 143 to 144
CNC(=S)NS(=O)(=O)c1cc(CCNC(=O)/C=C/c2cccs2)ccc1OCCOC | 140
Cc1cc(C(=O)O)sn1 | 203 to 204
NC(=O)N1C(=O)C(=C(OCCc2ccccc2)c2cccs2)c2cc(F)c(Cl)cc21 | 202 to 203
Cn1c(C(=O)c2ccc(F)cc2)cc2cc(OCc3ccccc3)ccc21 | 118 to 120
COc1ccc(CN2C(=O)NC(=O)C2O)cc1OC (stereo not drawn) | 143 to 144
CSc1cc(C)nc(SC)c1NC(=O)CCCCCCCSc1nc2ccccc2s1 | 104 to 108
CCCn1nc(C2CC2)c(C(=O)OCC)c1Cc1ccc(-c2ccccc2-c2nnn[nH]2)cc1 | 148 to 149
COCCC1(C(=O)N[C@@H](Cc2ccc(N3C(=O)c4ccc(C#N)cc4C3=O)cc2)C(=O)O)CCCC1 | 143 to 146
CCON=C(C)c1cccnc1 | 160 to 162
COC(=O)c1csc(Cl)c1NC(C)=O | 119 to 121
CCN(CC)Nc1ccc(CN2OCC(C)(C)C2=O)c(Cl)c1 | 139 to 141
COC12CC(CO)CN(C)C1CC1CNc3cccc2c31 (stereo not drawn) | 134 to 138
COc1cc2c3c(cccc3c1[N+](=O)[O-])C(=O)N(O)C2=O | 264 to 265
COC(=O)c1cc(-c2ccc(S(C)(=O)=O)cc2)n(C2CCCCC2)n1 | 108
CN(CCC#N)c1nc(Nc2cccc(NS(C)(=O)=O)c2)nc2[nH]cnc12 | 218 to 222
CC(C)(C)c1ccc(N2CC(COC(=O)c3ccccc3C(=O)O)CC2=O)cc1 (stereo not drawn) | 155 to 157
Clc1cc(Br)c2ccccc2c1Cl | 84 to 86

SMILES | melting point [°C]
CC1=CC(=C=C2C(C#N)C(=C(C#N)C#N)OC2(C)C)C=C(C)N1c1ccccc1 (stereo not drawn) | 290
COCCn1nc2c(N)nc3ccccc3c2c1CC1CCOCC1 | 189 to 190
C#CCn1c(C(F)(F)F)c(CO)oc1=O | 64
Cc1ccc(S(=O)(=O)Nc2ccc(N)c(C3CCCC3)c2)cc1 | 128
C[C@@H]1O[C@](/C=C/C2CC2)(C(F)(F)F)c2c(ccc3c2OCO3)NC1=O (relative stereo) | 236 to 237
NC(=O)c1cn(-c2ccc(Cl)c(Cl)c2)cn1 | 244 to 245
CC(=O)N1CCC(c2nccc3occc23)CC1 | 108 to 110
CCCCc1nn(-c2cc(NC(=O)CC)ccc2Cl)c(=O)n1Cc1ccc(-c2ccccc2S(=O)(=O)NC(=O)c2cc(Cl)ccc2Cl)cc1F | 169 to 172
O=C1CC(O)CC(/C=C/c2c(Cl)cc(Cl)cc2OCc2ccccc2)O1 (stereo not drawn) | 109 to 112
Cc1cc(NC(=O)C=Cc2ccccc2)c(NC(=O)C=Cc2ccccc2)cc1C | 244
CC1(N2Cc3ccccc3C2=O)CCC(=O)NC1=O (stereo not drawn) | 231 to 232
Nc1nc(Oc2cc(F)cc(F)c2)nc2nc(-c3ccco3)nn12 | > 300
CC(C)(C)OC(=O)N1CCC(Oc2cncc(Cl)n2)CC1 | 86 to 87
CN1Cc2ccccc2P1(=O)c1ccccc1 (stereo not drawn) | 129 to 130
O=S1(=O)CCON=C1c1ccc(Cl)s1 | 113 to 114
CNCC(O)c1ccc(Br)cc1 (stereo not drawn) | 91.5 to 93.7
CCOC(=O)c1cccc(Oc2ncccc2O)c1 | 117 to 118
CCN(CC)CCN(CC)C(=O)c1ccc(Nc2ccnc3c(C(F)(F)F)cccc23)cc1 | 151 to 152
CS(=O)c1nc(-c2ccccc2)c(-c2ccccc2)s1 (stereo not drawn) | 102 to 103
COc1ccc(S(=O)(=O)N(CCO)c2cccc(F)c2/C=C/c2ccncc2)cc1 | 152 to 153
Cc1nc2c(O)cccc2c(Cl)c1C | 120
FC(F)(F)c1nnc(S)s1 | 72 to 73
O=C(NCCCCCn1cncn1)c1ccc(Br)cc1 | 93 to 95
CC(C)(C)c1cc(C(=O)Nc2nc(CC(=O)NCCN3CCN(c4ncccn4)CC3)cs2)cc(C(C)(C)C)c1O | 175 to 179
COC(=O)CCC(=O)c1cc2c(s1)CCc1ccccc1C2=O | 97 to 98
O=C(O)C(Cc1ccccc1)Oc1ccc2cc(-c3csc(-c4ccccc4)n3)ccc2c1Br (stereo not drawn) | 220 to 224

SMILES | melting point [°C]
COC12CC(C)(C)C(OC(C)=O)C(C=C1C)O2 (stereo not drawn) | 54 to 55
CC(C)(C)[Si](Oc1ccc(Br)cc1)(c1ccccc1)c1ccccc1 | 56
Cc1nnc(-c2ccc3ccn(-c4ccc(S(C)=O)cc4)c3c2)o1 (stereo not drawn) | 215 to 216
CC(=O)N(C)Cc1ccc(C(=O)Cn2cnc3cc(-c4ccc(Cl)cc4)sc3c2=O)cc1 | 250 to 251
CNCc1ccc2nc(NC(=O)c3ccc(C(C)(C)C)cc3)cn2c1 | 204 to 205
CS(=O)(=O)Nc1cccc(C2=Nc3ccc(-c4ccc(F)cc4)cc3NC(=O)C2)c1 | 232 to 235
CCN(C(=O)NC)c1ccc(Cl)nc1 | 135 to 136
CC(=O)Oc1ccc2c(c1)CC=C1C2CCC2(C)C=CCC12 (stereo not drawn) | 77 to 80
COC1Cc2nc3cc(N)ccc3n2C1 (stereo not drawn) | 140 to 142
Cc1ncn(-c2cc(F)ccc2CNC(=O)c2nc3n(c(=O)c2OCc2ccccc2)CCN3c2ccccc2)n1 | 147 to 148
CCCCCCCCCc1cc(C(=O)O)n[nH]1 | 147 to 149
O=S(=O)(Cc1ccccc1)c1c(Cl)nc(Cl)nc1Cl | 160 to 162
CNC(=O)c1cc(Cl)cc(C)c1NC(=O)c1cc(Br)nn1-c1ncccc1Cl | 162 to 164
COc1cccc(-c2cc(F)cc3c2OC(CN)C3)c1OC (stereo not drawn) | 166 to 167
CCCCCCCc1ccc(C(=O)CCCC(=O)O)cc1 | 101
Oc1ccccc1Cc1ccc(Cl)nn1 | 132
CC#CCCCn1ncc2c(N)c3c(nc21)CN(CCC)C3=O | 168 to 170
CC(=O)Nc1ccc(N2CCC(N(C)Cc3ccccc3)CC2)cc1 | 147
Cc1cccc(C(=O)Nc2c[nH]nc2C(=O)NCC(F)(F)F)n1 | 257 to 258
O=C(CCCCCCCBr)OC(C(=O)c1ccccc1)c1ccccc1 (stereo not drawn) | 60 to 61
COC(=O)c1c(C=O)cccc1Oc1nc(OC)cc(OC)n1 | 91 to 93
COc1ccc(C2CC(=O)N(Cc3ccc4ccc(Cl)cc4n3)C2)cc1OC1CCCC1 (stereo not drawn) | 106 to 107
c1cn2cnnc2c2cc3c(cc12)OCO3 | 267 to 269
CC(=O)NC[C@H]1CN(c2ccc(N3CCC(F)(F)CC3)c(F)c2)C(=O)O1 | 192 to 194
O=C1c2cccc3c2N(C(=O)C2CCCN12)C(c1ccccc1)O3 (stereo not drawn) | 160 to 163
